Measured values from PubChem BioAssay (NCI).
“And” between values parts separate entries of the source, which are not always exact repeats. Identical values can stand only once.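 Five compound concentrations were applied to cells in 96-well plates for 48 hours; endpoints were derived by simple linear interpolation of the resulting dose-response curve. Abbreviation: GI50, concentration required for 50% inhibition of growth. TGI: concentration producing complete growth inhibition.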

Columns and labels:
Assay in all cases: growth of human tumour cells (NCI), 48 h
HCC-2998 colon = tested on: HCC-2998 colon
MOLT-4 leukemia = tested on: MOLT-4 leukemia
HL-60(TB) leukemia = tested on: HL-60(TB) leukemia
RXF 393 renal = tested on: RXF 393 renal
RPMI-8226 leukemia = tested on: RPMI-8226 leukemia
PC-3 prostate = tested on: PC-3 prostate
MALME-3M melanoma = tested on: MALME-3M melanoma
HT29 colon = tested on: HT29 colon
HOP-92 NSCLC = tested on: HOP-92 NSCLC
IGROV1 ovarian = tested on: IGROV1 ovarian

| SMILES | GI50 (HCC-2998 colon) | TGI (HCC-2998 colon) | GI50 (MOLT-4 leukemia) | TGI (MOLT-4 leukemia) | GI50 (HL-60(TB) leukemia) | TGI (HL-60(TB) leukemia) | GI50 (RXF 393 renal) | TGI (RXF 393 renal) | GI50 (RPMI-8226 leukemia) | TGI (RPMI-8226 leukemia) | GI50 (PC-3 prostate) | TGI (PC-3 prostate) | GI50 (MALME-3M melanoma) | TGI (MALME-3M melanoma) | GI50 (HT29 colon) | TGI (HT29 colon) | TGI (HOP-92 NSCLC) | GI50 (IGROV1 ovarian) | TGI (IGROV1 ovarian) | GI50 (HOP-92 NSCLC) |
| --- | --- | --- | --- | --- | --- | --- | --- | --- | --- | --- | --- | --- | --- | --- | --- | --- | --- | --- | --- | --- |
| O=C(Nc1ccc(Oc2ccc(NC(=O)Nc3ccc([N+](=O)[O-])cc3)cc2)cc1)Nc1ccc([N+](=O)[O-])cc1 | 2.28 µM | 8.02 µM | 1.19 µM | 4.8 µM | 0.787 µM | 3.41 µM | 2.94 µM | > 24.4 µM | 0.303 µM | 1.84 µM | 1.04 µM | > 22.8 µM | 1.93 µM | 6.81 µM | 2 µM | 15.9 µM | 2.07 µM | 1.9 µM | 4.71 µM | – |
| c1ccc2cc(C[n+]3ccn(Cc4ccc5ccccc5n4)c3)ccc2c1 | 0.389 µM and 2.65 µM | 3.76 µM and 12.7 µM | 0.488 µM and 3.19 µM | 5.04 µM and 14.7 µM | 0.214 µM and 0.827 µM | 0.653 µM and 3.05 µM | – | 3.23 µM and 19.7 µM | 0.196 µM and 0.876 µM | – | 0.342 µM and 2.39 µM | 3.18 µM and 13.9 µM | 0.235 µM and 1.36 µM | 0.811 µM and 6.35 µM | 0.366 µM and 2.55 µM | 3.01 µM and 14.3 µM | – | 0.481 µM and 2.22 µM | 3.19 µM and 9.03 µM | 0.184 µM and 1.66 µM |
| O=C(CCN1CCCC1)Nc1ccc2c(NCCc3ccccc3)c3ccccc3nc2c1 | 0.51 µM | 1.98 µM | 0.296 µM | 1.56 µM | 0.389 µM | 1.67 µM | 0.51 µM | 1.75 µM | 0.32 µM | 1.15 µM | 0.406 µM | 1.55 µM | 0.384 µM | 1.45 µM | 0.368 µM | 1.75 µM | 1.51 µM | 0.366 µM | 1.63 µM | 0.332 µM |
| CC[C@H]1CN(C)[C@H]2Cc3c([nH]c4ccccc34)C(=O)C[C@H]1C2C(=O)OC (stereo partly specified) | – | > 100 µM | – | > 100 µM | – | > 100 µM | – | > 100 µM | – | > 100 µM | – | > 100 µM | – | > 100 µM | – | > 100 µM | > 100 µM | – | > 100 µM | – |
| CCCCCCCCCCCC1=NC(C)(C)CN1CC(C)O (stereo unspecified) | 1.69 µM | 3.07 µM | 2.83 µM | 8.51 µM | 2.44 µM | 5.68 µM | 2.55 µM | 6.96 µM | 1.58 µM | 4.18 µM | 4.48 µM | 18.6 µM | 5.64 µM | 20.4 µM | 1.43 µM | 2.86 µM | 13.6 µM | 1.89 µM | 4.75 µM | 2.06 µM |
| COc1ccc(/C=N\NC(=O)c2ccc3nc(-c4ccc(Cl)cc4)[nH]c3c2)cc1 | 2.57 µM | 6.44 µM | 4.53 µM | 30.4 µM | 13 µM | > 100 µM | 1.86 µM | 3.8 µM | 0.997 µM | 4.77 µM | 1.66 µM | 3.76 µM | 1.67 µM | 3.63 µM | 3.09 µM | 22.1 µM | 4.11 µM | 1.65 µM | 3.97 µM | 1.52 µM |
| CC#CC#C/C=C1\C=CC2(OC=CC2OC(C)=O)O1 (stereo unspecified) | – | 69.9 µM and 45.9 µM | 6.9 µM and 17.8 µM | 64.6 µM and 53.2 µM | – | 36.5 µM and > 86.7 µM | – | 26.1 µM | – | > 100 µM | – | > 100 µM | – | > 100 µM and 69.8 µM | – | 34.8 µM and 55.9 µM | 51.6 µM and 44.1 µM | – | > 100 µM | – |
| COc1ccc(C2=N[C@@H](c3ccc(Cl)cc3)[C@@H](c3ccc(Cl)cc3)N2C(=O)N2CCNC(=O)C2)c(OC(C)C)c1 | 14 µM and 15.7 µM and 12.8 µM | 27.6 µM and 29.8 µM and 26 µM | 7.54 µM and 3.5 µM and 2.74 µM | 28.4 µM and > 36.2 µM and 17.2 µM | 15.1 µM and 18.1 µM and 18.5 µM | 35.8 µM and 42.3 µM and 51 µM | 12.3 µM and 12.7 µM and 13.9 µM | 25.4 µM and 25.9 µM and 27.8 µM | 14.6 µM and 16.6 µM and 16.4 µM | > 63.7 µM and 62.7 µM and 56.8 µM | 11.2 µM and 11.1 µM and 12.3 µM | 26.7 µM and 24.9 µM and 28 µM | 11.2 µM and 2.56 µM and 1.15 µM | 25.6 µM and 16.4 µM and 17.1 µM | 14.9 µM and 14.4 µM and 14.2 µM | 31.4 µM and 28.2 µM and 29.1 µM | 31.9 µM and 23.9 µM and 24.8 µM | 13.1 µM and 6.5 µM and 5.08 µM | 29.4 µM and 26.2 µM and 26.5 µM | 14.9 µM and 10.7 µM |
| COc1ccc(C(=O)/C=C/c2cc(-c3ccc4c(c3)OCO4)n[nH]2)cc1OC | 4.99 µM | 17.3 µM | 3 µM | 10.3 µM | 2.82 µM | 11.8 µM | 2.42 µM | 5.39 µM | 1.03 µM | 5.24 µM | 2.58 µM | 18.2 µM | 7.32 µM | 22.8 µM | 2.98 µM | 11.3 µM | 8.11 µM | 2.79 µM | 9.2 µM | 2.16 µM |
| O=C1/C(=C/c2ccc(Cl)cc2)CN(C(=O)CCN2CCC(=NO)CC2)C/C1=C\c1ccc(Cl)cc1 | 0.699 µM | 1.88 µM | 0.397 µM | – | 1.37 µM | 4.9 µM | 1.46 µM | 2.87 µM | 0.157 µM | 0.552 µM | 0.481 µM | 1.57 µM | 1.5 µM | 3.12 µM | 0.338 µM | 1.31 µM | 3.54 µM | 0.807 µM | 2.05 µM | 1.64 µM |
| O=C(c1ccco1)c1nc2cc(C(F)(F)F)ccc2[n+]([O-])c1C(F)(F)F | > 100 µM | > 100 µM | 90.3 µM | > 100 µM | 78.1 µM | > 100 µM | 61.4 µM | > 100 µM | 20.3 µM | > 100 µM | 43.3 µM | > 100 µM | 33 µM | > 100 µM | 33.6 µM | > 100 µM | > 100 µM | 34.9 µM | > 100 µM | 36.7 µM |
| CCCCCCCCCCCCCCCC(=O)OCC1OC(OC)C(NC(=O)N(CCCl)N=O)C(O)C1O (stereo unspecified) | – | 48.2 µM | – | 29.2 µM | – | 28.3 µM | – | 32.7 µM | – | 61.6 µM | – | 51.7 µM | – | 59 µM | – | 33.7 µM | 47.8 µM | – | 54 µM | – |
| CN(C)c1ccc(Nc2c3ccccc3nc3cc(NC(=O)CCN4CCCC4)ccc23)cc1 | 0.627 µM | 2.26 µM | 0.042 µM | 1.07 µM | 0.19 µM | 0.763 µM | 0.466 µM | 1.69 µM | 0.185 µM | 0.711 µM | 0.577 µM | 2.17 µM | 1.12 µM | 2.41 µM | 0.475 µM | 2.06 µM | 2.14 µM | 0.291 µM | 1.83 µM | 0.379 µM |
